Assay results taken from US20210386367A1, “DEVICES AND SYSTEMS FOR GASTROINTESTINAL MICROBIOME DETECTION AND MANIPULATION” (Progenity, Inc., priority 2018, published 2021).
Values after ≈ are worked out from the molar mass of the structure shown. “Also recorded” adds a separate entry of the source. Like-named read-outs stand apart in the source and are kept apart here.

Assays:
Prevotella spp. = assay: Agar dilution MIC, 30 clinical isolates; assay type: cell-based; conditions: for Mode: modal MIC
S. agalactiae ATCC 13813 = assay: Broth microdilution MIC (time-kill study); assay type: cell-based, Streptococcus agalactiae
S. pyogenes ATCC 49399 [1] = assay: Time-kill assay; assay type: cell-based, Streptococcus pyogenes; conditions: 2×, 4×, 8× MIC; 2, 6, 24 hr
[2] = test system: Veillonella spp. clinical isolates; assay: MIC distribution against clinical isolates; assay type: cell-based; conditions: 30 Veillonella spp. isolates
Source text: (n=19 V. parvula, n=9 Veillonella spp., n=1 Veillonella dispr., n=1 V. atypica) clinical isolates (μg/mL).
As used herein, “minimum inhibitory concentration” or “MIC” refers to the lowest concentration of an antimicrobial agent, for example, an antimicrobial agent as described herein, required to inhibit the growth of an organism. […] “MIC90” represents the MIC value at which ≥90% of the strains within a test population are inhibited; the 90th percentile.
Many susceptibility testing methods are known in the art and can be used as described herein (see, e.g., Jorgensen and Ferraro (2009) Clinical Infectious Diseases 49:1749-1755; and Maurer et al. (2017) Infectious Disease Reports 9:6839; the entire contents of each of the foregoing are incorporated herein by reference). For example, antimicrobial susceptibility can be determined using conventional culture based methods such as the broth or agar dilution test. In these dilution tests, the bacterial isolate of interest is inoculated onto different media that include serial dilutions of an antimicrobial agent, and incubated under appropriate conditions (e.g., overnight at 37° C.) to allow for growth to occur. Following the incubation period, the media is examined to determine bacterial growth. The lowest concentration of antibiotic that prevents growth represents the minimal inhibitory concentration (MIC). Broth dilution tests can be miniaturized and mechanized allowing for reproducibility and high throughput.

S. pneumoniae ATCC 49619 = assay: Time-kill assay; assay type: cell-based, Streptococcus pneumoniae; conditions: for time-kill kinetics outcome (bactericidal = ≥3 log reduction in CFU per mL): 2×, 4×, 8× MIC, 2, 6, 24 hr
[3] = test system: Streptococcus spp. spontaneous mutants; assay: organism not typed; assay type: cell-based
Outline: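 Spontaneous mutants from drug selection plates were tested by CLSI broth microdilution in MHB II with two-fold serial drug dilutions. Inoculum was about 5×10^5 CFU/mL, incubated aerobically at 35° C. for 18-20 hr. MIC was the lowest concentration inhibiting visible growth.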

S. pyogenes ATCC 49399 [4] = assay: Broth microdilution MIC (time-kill study); assay type: cell-based, Streptococcus pyogenes
Bacteroides non fragilis = assay: Agar dilution MIC, 29 clinical isolates; assay type: cell-based, Bacteroides spp.; conditions: for Mode: modal MIC
[5] = test system: three isolates each of E. coli, Streptococcus spp. and Bacteroides spp.; assay: Time-kill assay, overall summary; assay type: cell-based
Experimental: MIC values were determined by broth microdilution in accordance with guidelines from the Clinical and Laboratory Standards Institute (CLSI; (1) “Methods for Dilution Antimicrobial Susceptibility Tests for Bacteria That Grow Aerobically; Approved Standard; 11th ed.,” CLSI standard M07, 2018; (2) “Performance Standards for Antimicrobial Susceptibility Testing; 28th ed.,” CLSI supplement M100, 2018).
During the time-kill study, the test flasks were sampled at 2, 6, and 24 hr for determination of viable counts using the track dilution method as described above. Bacteroides was also sampled at 48 hr. All E. coli plates were incubated for 20-24 hr at 35° C., Streptococci for 20-24 hr at 35° C. in a CO2 incubator, and Bacteroides for approximately 48 hr at 35° C. in the anaerobe chamber. Colonies were counted manually, and the CFU/mL was determined from the average count of the duplicate plates, followed by the calculation of the log10 CFU/mL. The limit of detection for the assay was 50 CFU/mL.

[6] = 30 Prevotella spp. clinical isolates
[7] = S. agalacttae ATCC 13813 (so in the source)
[8] = S. pneumoniae ATCC 49619, selected on rifaximin 4X MIC, Colony A
[9] = S. pneumoniae ATCC 49619, selected on rifaximin 4X MIC, Colony B
[10] = S. pneumoniae ATCC 49619, selected on rifaximin 8X MIC, Colony A
[11] = S. pneumoniae ATCC 49619, selected on rifaximin 8X MIC, Colony B
[12] = S. pneumoniae ATCC 49619 Parent
[13] = S. pyogenes ATCC 49399, selected on rifaximin 4X MIC, Colony A
[14] = S. pyogenes ATCC 49399, selected on rifaximin 4X MIC, Colony B
[15] = S. pyogenes ATCC 49399, selected on rifaximin 8X MIC, Colony A
[16] = S. pyogenes ATCC 49399, selected on rifaximin 8X MIC, Colony B
[17] = 29 Bacteroides non-fragilis clinical isolates
[18] = S. agaloctiae ATCC 13813, selected on rifaximin 4X MIC, Colony A
[19] = S. agaloctiae ATCC 13813, selected on rifaximin 4X MIC, Colony B
[20] = S. agaloctiae ATCC 13813, selected on rifaximin 8X MIC, Colony A
[21] = S. agaloctiae ATCC 13813, selected on rifaximin 8X MIC, Colony B
[22] = S. agaloctiae ATCC 13813 Parent

## C[C@@H](O)[C@H]1C(=O)N2C(C(=O)O)=C(S[C@@H]3CN[C@H](C(=O)N(C)C)C3)[C@H](C)[C@H]12 [meropenem]
Prevotella spp.
  MIC range: ≤8 to 300 ng/mL
  isolates susceptible: All were susceptible
  relative activity among drugs tested: most active drug tested; also recorded: most active agent
Prevotella spp.; [6]
  % S: 100%
  MIC50: 0.06 µg/mL (≈ 0.156 µM)
  MIC90: 0.12 µg/mL (≈ 0.313 µM)
  MIC range: ≤8 to 300 ng/mL
  Mode: 0.06 µg/mL
Prevotella spp.; Prevotella, read-out: MIC50
  MIC50: 0.06 µg/mL (≈ 0.156 µM)
Prevotella spp.; Prevotella, read-out: MIC90
  MIC90: 0.12 µg/mL (≈ 0.313 µM)
S. agalactiae ATCC 13813; [7]
  MIC: 8 ng/mL (≈ 0.0209 µM)
S. agalactiae ATCC 13813; Streptococcus agalactiae, ATCC13813, broth microdilution, read-out: MIC
  MIC: 8 ng/mL (≈ 0.0209 µM)
S. pyogenes ATCC 49399 [1]
  time-kill kinetics outcome (bactericidal = ≥3 log reduction in CFU per mL): bactericidal effect at 4× and 8×MIC at 24 hr
[2]; MIC 0.5 μg/mL
  Cumulative percentage of isolates inhibited at MIC: 43.3%
  Number of test isolates at MIC: 2
[2]; MIC 1 μg/mL
  Cumulative percentage of isolates inhibited at MIC: 53.3%
  Number of test isolates at MIC: 3
[2]; MIC 2 μg/mL
  Cumulative percentage of isolates inhibited at MIC: 70.0%
  Number of test isolates at MIC: 5
[2]; MIC 4 μg/mL
  Cumulative percentage of isolates inhibited at MIC: 76.7%
  Number of test isolates at MIC: 2
[2]; MIC 8 μg/mL
  Cumulative percentage of isolates inhibited at MIC: 100.0%
  Number of test isolates at MIC: 7
S. pneumoniae ATCC 49619
  time-kill kinetics outcome (bactericidal = ≥3 log reduction in CFU per mL): all three drug concentrations tested demonstrated bactericidal effects at 24 hr
[3]; [8]
  MIC: 0.03 µg/mL (≈ 0.0782 µM)
[3]; [9]
  MIC: 0.03 µg/mL (≈ 0.0782 µM)
[3]; [10]
  MIC: 0.03 µg/mL (≈ 0.0782 µM)
[3]; [11]
  MIC: 0.03 µg/mL (≈ 0.0782 µM)
[3]; [12]
  MIC: 0.03 µg/mL (≈ 0.0782 µM)
[3]; [13]
  MIC: 0.002 µg/mL (≈ 0.00522 µM)
[3]; [14]
  MIC: 0.004 µg/mL (≈ 0.0104 µM)
[3]; [15]
  MIC: 0.004 µg/mL (≈ 0.0104 µM)
[3]; [16]
  MIC: 0.004 µg/mL (≈ 0.0104 µM)
[3]; S. pyogenes ATCC 49399 Parent
  MIC: 0.004 µg/mL (≈ 0.0104 µM)
[3]; Streptococcus, ATCC13813, S. agaloctiae ATCC 13813, selected on rifaximin 4X MIC, Colony A
  MIC: 0.015 µg/mL (≈ 0.0391 µM)
[3]; Streptococcus, ATCC13813, S. agaloctiae ATCC 13813, selected on rifaximin 4X MIC, Colony B
  MIC: 0.015 µg/mL (≈ 0.0391 µM)
[3]; Streptococcus, ATCC13813, S. agaloctiae ATCC 13813, selected on rifaximin 8X MIC, Colony A
  MIC: 0.015 µg/mL (≈ 0.0391 µM)
[3]; Streptococcus, ATCC13813, S. agaloctiae ATCC 13813, selected on rifaximin 8X MIC, Colony B
  MIC: 0.03 µg/mL (≈ 0.0782 µM)
[3]; Streptococcus, ATCC13813, S. agaloctiae ATCC 13813 Parent
  MIC: 0.008 µg/mL (≈ 0.0209 µM)
S. pyogenes ATCC 49399 [4]; S. pyogenes ATCC 49399
  MIC: 4 ng/mL (≈ 0.0104 µM)
S. pyogenes ATCC 49399 [4]; Streptococcus pyogenes, ATCC49399, broth microdilution, read-out: MIC
  MIC: 4 ng/mL (≈ 0.0104 µM)
Bacteroides non fragilis
  isolates with intermediate resistance: Three
Bacteroides non fragilis; [17]
  % I: 3%
  % S: 97%
  MIC50: 0.5 µg/mL (≈ 1.3 µM)
  MIC90: 2 µg/mL (≈ 5.22 µM)
  Mode: 0.5 µg/mL
Bacteroides non fragilis; Bacteroides, read-out: MIC50
  MIC50: 0.5 µg/mL (≈ 1.3 µM)
Bacteroides non fragilis; Bacteroides, read-out: MIC90
  MIC90: 2 µg/mL (≈ 5.22 µM)
[5]
  overall time-kill outcome: bactericidal activity

## CO[C@H]1/C=C/O[C@@]2(C)Oc3c(C)c(O)c4c(O)c(c5c(nc6cc(C)ccn65)c4c3C2=O)NC(=O)/C(C)=C\C=C\[C@H](C)[C@H](O)[C@@H](C)[C@@H](O)[C@@H](C)[C@H](OC(C)=O)[C@@H]1C [rifaximin]
Prevotella spp.
  MIC50: 0.12 µg/mL (≈ 0.153 µM)
  MIC90: 1 µg/mL (≈ 1.27 µM)
Prevotella spp.; [6]
  MIC50: 0.12 µg/mL (≈ 0.153 µM)
  MIC90: 1 µg/mL (≈ 1.27 µM)
  MIC range: 30 to 32000 ng/mL
  Mode: 0.12 µg/mL
S. agalactiae ATCC 13813; [7]
  MIC: 250 ng/mL (≈ 0.318 µM)
S. agalactiae ATCC 13813; broth microdilution
  MIC: 250 ng/mL (≈ 0.318 µM)
S. pyogenes ATCC 49399 [1]
  time-kill kinetics outcome (bactericidal = ≥3 log reduction in CFU per mL): bacteriostatic effect against this organism at 2×, 4×, and 8× the MIC
[2]; MIC 1 μg/mL
  Cumulative percentage of isolates inhibited at MIC: 10.0%
  Number of test isolates at MIC: 1
[2]; MIC 8 μg/mL
  Cumulative percentage of isolates inhibited at MIC: 93.3%
  Number of test isolates at MIC: 7
S. pneumoniae ATCC 49619
  time-kill kinetics outcome (bactericidal = ≥3 log reduction in CFU per mL): rebounded to no-drug control levels at 24 hr
S. pneumoniae ATCC 49619; all three concentrations, 6 hr timepoint
  CFU decrease: approximately 2.3 log10 CFU
[3]; [18]
  MIC: >8 µg/mL
[3]; [19]
  MIC: >8 µg/mL
[3]; [20]
  MIC: >8 µg/mL
[3]; [21]
  MIC: >8 µg/mL
[3]; [22]
  MIC: 0.12 µg/mL (≈ 0.153 µM)
[3]; [8]
  MIC: >8 µg/mL
[3]; [9]
  MIC: >8 µg/mL
[3]; [10]
  MIC: >8 µg/mL
[3]; [11]
  MIC: >8 µg/mL
[3]; [12]
  MIC: 0.015 µg/mL (≈ 0.0191 µM)
[3]; [13]
  MIC: >8 µg/mL
[3]; [14]
  MIC: >8 µg/mL
[3]; [15]
  MIC: >8 µg/mL
[3]; [16]
  MIC: >8 µg/mL
[3]; S. pyogenes ATCC 49399 Parent
  MIC: 0.06 µg/mL (≈ 0.0763 µM)
[3]; colonies selected at 4× and 8× the MIC
  broth microdilution MIC of selected colonies relative to parent strain: several-fold higher
S. pyogenes ATCC 49399 [4]; S. pyogenes ATCC 49399
  MIC: 120 ng/mL (≈ 0.153 µM)
S. pyogenes ATCC 49399 [4]; broth microdilution
  MIC: 120 ng/mL (≈ 0.153 µM)
Bacteroides non fragilis
  MIC50: 0.12 µg/mL (≈ 0.153 µM)
  MIC90: 0.5 µg/mL (≈ 0.636 µM)
  relative activity among drugs tested: most active
Bacteroides non fragilis; [17]
  MIC50: 0.12 µg/mL (≈ 0.153 µM)
  MIC90: 0.5 µg/mL (≈ 0.636 µM)
  MIC range: 0.03 to 0.5 µg/mL
  Mode: 0.12 µg/mL
[5]
  overall time-kill outcome: bacteriostatic activity and regrowth was typically observed

## Penicillin
[3]; [18]
  MIC: 0.015 µg/mL
[3]; [19]
  MIC: 0.015 µg/mL
[3]; [20]
  MIC: 0.015 µg/mL
[3]; [21]
  MIC: 0.015 µg/mL
[3]; [22]
  MIC: 0.015 µg/mL
[3]; [8]
  MIC: 0.12 µg/mL
[3]; [9]
  MIC: 0.25 µg/mL
[3]; [10]
  MIC: 0.25 µg/mL
[3]; [11]
  MIC: 0.25 µg/mL
[3]; [12]
  MIC: 0.25 µg/mL
[3]; [13]
  MIC: 0.004 µg/mL
[3]; [14]
  MIC: 0.008 µg/mL
[3]; [15]
  MIC: 0.004 µg/mL
[3]; [16]
  MIC: 0.004 µg/mL
[3]; S. pyogenes ATCC 49399 Parent
  MIC: 0.008 µg/mL
